Laboratory results reported in patent US7226923B2, “Phthalazinone derivatives” (Hoffman-La Roche Inc., priority 2004, dated 2007).

system: HCT 116 cells; assay: CellTiter-Glo assay in HCT 116 cells; assay type: cell-based, human; settings: 5 days incubation, 30 μM to 0.0015 μM
Source text: CellTiter-Glo™ Assay in HCT 116 Cells
The CellTiter-Glo™ Luminescent Cell Viability Assay (Promega) is a homogeneous method of determining the number of viable cells in culture based on quantitation of the ATP present, which signals the presence of metabolically active cells.
HCT 116 cells (human colon carcinoma, ATCC-No. CCl-247) were cultivated in RPMI 1640 medium with GlutaMAX™ I (Invitrogen, Cat-No. 61870-010), 2.5% Fetal Calf Serum (FCS, Sigma Cat-No. F4135 (FBS)); 100 Units/ml penicillin/100 μg/ml streptomycin (=Pen/Strep from Invitrogen Cat. No. 15140). For the assay the cells were seeded in 384 well plates, 1000 cells per well, in the same medium. The next day the test compounds were added in various concentrations ranging from 30 μM to 0.0015 μM (10 concentrations, 1:3 diluted). After 5 days the CellTiter-Glo™ assay was done according to the instructions of the manufacturer (CellTiter-Glo™ Luminescent Cell Viability Assay, from Promega). In brief: the cell-plate was equilibrated to room temperature for approximately 30 minutes and than the CellTiter-Glo™ reagent was added. The contents were carefully mixed for 15 minutes to induce cell lysis. After 45 minutes the luminescent signal was measured in Victor 2, (scanning multiwell spectrophotometer, Wallac).
1st. Day: • Medium: RPMI 1640 with GlutaMAX™ I (Invitrogen, Cat-Nr. 61870), 5% FCS (Sigma Cat.-No. F4135), Pen/Strep (Invitrogen, Cat No. 15140). • HCT116 (ATCC-No. CCl-247): 1000 cells in 60 μl per well of 384 well plate (Greiner 781098, μClear-plate white) • After seeding incubate plates 24 h at 37° C., 5% CO2
2nd. Day: Induction (Treatment with Compounds, 10 Concentrations):
In order to achieve a final concentration of 30 μM as highest concentration 3.5 μl of 10 mM compound stock solution were added directly to 163 μl media. Then step e) of the dilution procedure described below, was followed.

| SMILES | IC50 [nM] |
| --- | --- |
| Cc1cc(Nc2nn(-c3ccccc3)c(=O)c3ccccc23)[nH]n1 [Example A-1, 4-(5-Methyl-2H-pyrazole-3-ylamino)-phenyl-2H-phthalazin-1-one] | 1660 |

same assay, conditions: Homo sapiens, HCT-116, 120 h, 5 days incubation, 30 μM to 0.0015 μM

| SMILES | IC50 [nM] |
| --- | --- |
| Cc1cc(Nc2nn(Cc3ccccc3)c(=O)c3ccccc23)n[nH]1 [Example A-2, 2-Benzyl-4-(5-methyl-1H-pyrazol-3-ylamino)-2H-phthalazin-1-one] | 100 to 10000 |
| Cc1cc(Nc2nn(C)c(=O)c3ccccc23)n[nH]1 [Example A-3, 2-Methyl-4-(5-methyl-1H-pyrazol-3-ylamino)-2H-phthalazin-1-one] | 100 to 10000 |
| Cc1cc(Nc2nn(CC(C)C)c(=O)c3ccccc23)n[nH]1 [Example A-4, 2-Isobutyl-4-(5-methyl-1H-pyrazol-3-ylamino)-2H-phthalazin-1-one] | 100 to 10000 |
| Cc1cc(Nc2nn(CC(F)(F)F)c(=O)c3ccccc23)n[nH]1 [Example A-5, 4-(5-Methyl-1H-pyrazol-3-ylamino)-2-(2,2,2-trifluoro-ethyl)-2H-phthalazin-1-one] | 100 to 10000 |
| Cc1cc(Nc2nn(-c3ccc(C(C)(C)C)cc3)c(=O)c3ccccc23)n[nH]1 [Example A-8, 2-(4-tert-Butyl-phenyl)-4-(5-methyl-1H-pyrazol-3-ylamino)-2H-phthalazin-1-one] | 100 to 10000 |
| COc1cccc(Cn2nc(Nc3cc(C)[nH]n3)c3ccccc3c2=O)c1 [Example A-12, 2-(3-Methoxy-benzyl)-4-(5-methyl-1H-pyrazol-3-ylamino)-2H-phthalazin-1-one] | 100 to 10000 |
| Cc1cc(Nc2nn(Cc3cc(F)ccc3F)c(=O)c3ccccc23)n[nH]1 [Example A-13, 2-(2,5-Difluoro-benzyl)-4-(5-methyl-1H-pyrazol-3-ylamino)-2H-phthalazin-1-one] | 100 to 10000 |
| Cc1cc(Nc2nn(Cc3ccc(F)c(F)c3)c(=O)c3ccccc23)n[nH]1 [Example A-15, 2-(3,4-Difluoro-benzyl)-4-(5-methyl-1H-pyrazol-3-ylamino)-2H-phthalazin-1-one] | 100 to 10000 |
| Cc1cc(Nc2nn(Cc3csc(C)n3)c(=O)c3ccccc23)n[nH]1 [Example A-16, 4-(5-Methyl-1H-pyrazol-3-ylamino)-2-(2-methyl-thiazol-4-ylmethyl)-2H-phthalazin-1-one] | 100 to 10000 |
| Cc1cc(Nc2nn(-c3ccc(Cl)cc3)c(=O)c3ccccc23)n[nH]1 [Example B-1, 2-(4-Chloro-phenyl)-4-(5-methyl-1H-pyrazol-3-ylamino)-2H-phthalazin-1-one] | 100 to 10000 |
| Cc1cc(Nc2nn(-c3ccc(N)cc3)c(=O)c3ccccc23)n[nH]1 [Example C-2, 2-(4-Amino-phenyl)-4-(5-methyl-1H-pyrazol-3-ylamino)-2H-phthalazin-1-one] | 100 to 10000 |
| Cc1cc(Nc2nn(C(C)C)c(=O)c3ccc(F)cc23)n[nH]1 [Example E-3, 6-Fluoro-2-isopropyl-4-(5-methyl-1H-pyrazol-3-ylamino)-2H-phthalazin-1-one] | 100 to 10000 |
| C=CCn1nc(Nc2cc(C)[nH]n2)c2ccccc2c1=O [Example E-10, 2-Allyl-4-(5-methyl-1H-pyrazol-3-ylamino)-2H-phthalazin-1-one] | 100 to 10000 |
| Cc1cc(Nc2nn(CC3CC3)c(=O)c3ccccc23)n[nH]1 [Example E-11, 2-Cyclopropylmethyl-4-(5-methyl-1H-pyrazol-3-ylamino)-2H-phthalazin-1-one] | 100 to 10000 |
| CSc1ccc(Cn2nc(Nc3cc(C)[nH]n3)c3ccccc3c2=O)cc1 [Example E-12, 4-(5-Methyl-1H-pyrazol-3-ylamino)-2-(4-methylsulfanyl-benzyl)-2H-phthalazin-1-one] | 100 to 10000 |
| Cc1cc(Nc2nn(C(C)C)c(=O)c3ccc(N4CCOCC4)cc23)n[nH]1 [Example F-2, 2-Isopropyl-4-(5-methyl-1H-pyrazol-3-ylamino)-6-morpholino-2H-phthalazin-1-one] | 100 to 10000 |
| Cc1cc(Nc2nn(C(C)C)c(=O)c3cc(SCCN4CCOCC4)ccc23)n[nH]1 [Example H-3, 2-Isopropyl-4-(5-methyl-1H-pyrazol-3-ylamino)-7-(2-morpholin-4-yl-ethylsulfanyl)-2H-phthalazin-1-one] | 100 to 10000 |
| CCOC(=O)N(C)c1ccc2c(Nc3cc(C)[nH]n3)nn(C(C)C)c(=O)c2c1 [Example I-7, [3-Isopropyl-1-(5-methyl-1H-pyrazol-3-ylamino)-4-oxo-3,4-dihydro-phthalazin-6-yl]-methyl-carbamic acid ethyl ester] | 100 to 10000 |
| Cc1cc(Nc2nn(C(C)C)c(=O)c3cc(N(C)S(C)(=O)=O)ccc23)n[nH]1 [Example I-10, N-[3-Isopropyl-1-(5-methyl-1H-pyrazol-3-ylamino)-4-oxo-3,4-dihydro-phthalazin-6-yl]-N-methyl-methanesulfonamide] | 100 to 10000 |
| Cc1cc(Nc2nn(C(C)C)c(=O)c3cc(NS(C)(=O)=O)ccc23)n[nH]1 [Example J-2, N-[3-Isopropyl-1-(5-methyl-1H-pyrazol-3-ylamino)-4-oxo-3,4-dihydro-phthalazin-6-yl]-methanesulfonamide] | 100 to 10000 |
| Cc1cc(Nc2nn(C(C)C)c(=O)c3cc(C(=O)NC(C)C)ccc23)n[nH]1 [Example M-5, 3-Isopropyl-1-(5-methyl-1H-pyrazol-3-ylamino)-4-oxo-3,4-dihydro-phthalazine-6-carboxylic acid isopropylamide] | 100 to 10000 |
| Cc1cc(Nc2nn(-c3ccc(-c4ccccc4)cc3)c(=O)c3ccccc23)n[nH]1 [Example Q-1, 2-Biphenyl-4-yl-4-(5-methyl-1H-pyrazol-3-ylamino)-2H-phthalazin-1-one] | 10000 to 100000 |
| COCC(=O)Nc1ccc(-n2nc(Nc3cc(C)[nH]n3)c3ccccc3c2=O)cc1 [Example T-2, 2-Methoxy-N-{4-[4-(5-methyl-1H-pyrazol-3-ylamino)-1-oxo-1H-phthalazin-2-yl]-phenyl}-acetamide] | 100 to 10000 |
| Cc1cc(Nc2nn(-c3ccc(N4CCCC4)cc3)c(=O)c3ccccc23)n[nH]1 [Example U-3, 4-(5-Methyl-1H-pyrazol-3-ylamino)-2-(4-pyrrolidin-1-yl-phenyl)-2H-phthalazin-1-one] | 100 to 10000 |
| CCN(C(C)=O)c1ccc(-n2nc(Nc3cc(C)[nH]n3)c3ccccc3c2=O)cc1 [Example Y-1, N-Ethyl-N-{4-[4-(5-methyl-1H-pyrazol-3-ylamino)-1-oxo-1H-phthalazin-2-yl]-phenyl}-acetamide] | 100 to 10000 |
| CCOC(=O)N(C)c1ccc(-n2nc(Nc3cc(C)[nH]n3)c3ccccc3c2=O)cc1 [Example Y-3, Methyl-{4-[4-(5-methyl-1H-pyrazol-3-ylamino)-1-oxo-1H-phthalazin-2-yl]-phenyl}-carbamic acid ethyl ester] | 100 to 10000 |
| Cc1cc(Nc2nn(-c3ccc([S+]([O-])c4ccccc4)cc3)c(=O)c3ccccc23)n[nH]1 (stereo not drawn) [Example ZA-2, 2-(4-Benzenesulfinyl-phenyl)-4-(5-methyl-1H-pyrazol-3-ylamino)-2H-phthalazin-1-one] | 100 to 10000 |
| Cc1cc(Nc2nn(-c3ccc(C(C)(C)C)cc3)c(=O)c3cc(N)ccc23)[nH]n1 [Example ZB-2, 7-Amino-2-(4-tert-butyl-phenyl)-4-(5-methyl-2H-pyrazol-3-ylamino)-2H-phthalazin-1-one] | 100 to 10000 |
| Cc1cc(Nc2nn(-c3ccc(C(C)(C)C)cc3)c(=O)c3ccc(Br)cc23)[nH]n1 [Example ZB-6, 6-Bromo-2-(4-tert-butyl-phenyl)-4-(5-methyl-2H-pyrazol-3-ylamino)-2H-phthalazin-1-one] | 100 to 10000 |

target: T1, Aurora A (Homo sapiens, UniProt O14965); assay: IC50 determination for inhibitors of Aurora A (96 MTP-ELISA); assay type: biochemical; settings: His4-tagged full-length Aurora A 250 ng/ml, PKB-GSK2 200 nM, ATP 4 μM, 90 min at room temperature, read-out: IC50 Aurora A kinase inhibition
T1 construct: C-terminally Histidine4 (His4)-tagged Aurora A full-length protein
T1 sequence (O14965 1-403): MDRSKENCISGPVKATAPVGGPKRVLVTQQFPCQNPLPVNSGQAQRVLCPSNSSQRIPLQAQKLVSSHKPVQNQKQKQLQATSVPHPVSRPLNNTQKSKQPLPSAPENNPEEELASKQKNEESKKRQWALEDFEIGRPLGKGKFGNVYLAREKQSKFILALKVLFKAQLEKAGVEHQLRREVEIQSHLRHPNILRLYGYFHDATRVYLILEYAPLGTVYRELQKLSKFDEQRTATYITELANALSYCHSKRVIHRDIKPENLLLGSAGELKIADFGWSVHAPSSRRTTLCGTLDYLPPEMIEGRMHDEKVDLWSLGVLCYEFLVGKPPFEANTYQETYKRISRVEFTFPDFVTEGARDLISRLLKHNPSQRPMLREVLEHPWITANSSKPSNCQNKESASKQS
Protocol: IC50 Determination for Inhibitors of Aurora A
• Aurora A is a serine threonine kinase involved in spindle assembly and chromosome segregation.
The assay is a typically ELISA-type assay where biotinylated substrate (PKB-GSK2) is phosphorylated. Phosphorylation is detected by peroxidase (POD) labelled polyclonal antibody (PAK<M-Ig>S-IgG-POD) and phosphopeptide monoclonal antibody (Mab) (MAK<P-GSK>M-27E5-IgG). The assay is validated for IC50-determination.
Method • This assay is performed in 96-well format for IC50 determination with 5 samples (each with 8 concentrations by twofold testing), 100 μl incubation volume and the following plate layout: […]

| SMILES | IC50 [nM] |
| --- | --- |
| Cc1cc(Nc2nn(Cc3ccccc3)c(=O)c3ccccc23)n[nH]1 [Example A-2, 2-Benzyl-4-(5-methyl-1H-pyrazol-3-ylamino)-2H-phthalazin-1-one] | 65 |
| Cc1cc(Nc2nn(C)c(=O)c3ccccc23)n[nH]1 [Example A-3, 2-Methyl-4-(5-methyl-1H-pyrazol-3-ylamino)-2H-phthalazin-1-one] | 100 to 1000 |
| Cc1cc(Nc2nn(CC(F)(F)F)c(=O)c3ccccc23)n[nH]1 [Example A-5, 4-(5-Methyl-1H-pyrazol-3-ylamino)-2-(2,2,2-trifluoro-ethyl)-2H-phthalazin-1-one] | 1 to 100 |
| Cc1cc(Nc2nn(-c3ccc(C(C)(C)C)cc3)c(=O)c3ccccc23)n[nH]1 [Example A-8, 2-(4-tert-Butyl-phenyl)-4-(5-methyl-1H-pyrazol-3-ylamino)-2H-phthalazin-1-one] | 100 to 1000 |
| COc1cccc(Cn2nc(Nc3cc(C)[nH]n3)c3ccccc3c2=O)c1 [Example A-12, 2-(3-Methoxy-benzyl)-4-(5-methyl-1H-pyrazol-3-ylamino)-2H-phthalazin-1-one] | 1 to 100 |
| Cc1cc(Nc2nn(Cc3csc(C)n3)c(=O)c3ccccc23)n[nH]1 [Example A-16, 4-(5-Methyl-1H-pyrazol-3-ylamino)-2-(2-methyl-thiazol-4-ylmethyl)-2H-phthalazin-1-one] | 100 to 1000 |
